Results as given in patent publication US7875614B2, “Phthalazinones” (Merck Patent GmbH, priority 2005, dated 2011).

Tested on: cells
Experiment: cell cycle effect (G2/M)
Assay type: cell-based
Details: cell line not stated; "Experiments show that"

`N=C(N)c1ccc(OCCCCCOc2ccc(C(=N)N)cc2)cc1` [pentamidine] was tested. Which “effect on cell cycle” value did it give?
The value was “maintain cells in the G2/M cell cycle”.
